Non-standard residues stand in square brackets, D forms with d. Residues, ends and D or L forms follow the SMILES beside them. *: point of attachment. X2 = c1ccc(-c2cn(CC3CCCCC3)c([C@@H]3CCCN3*)n2)cc1; Ala(cPent) = N[C@@H](CC1CCCC1)C(=O)O; Pentanoyl(4-Me) = CC(C)CCC(=O)*; Dap = NC[C@H](N)C(=O)O
How the values were obtained:
Protein ENL = biological target: T1, Protein ENL (Homo sapiens, UniProt Q03111); experiment: Binding affinity to MBP-tagged human recombinant ENL (489 to 559 residues) incubated for 40 mins by measuring fluorescence polarization by microplate reader method
T1 sequence (Q03111 whole entry): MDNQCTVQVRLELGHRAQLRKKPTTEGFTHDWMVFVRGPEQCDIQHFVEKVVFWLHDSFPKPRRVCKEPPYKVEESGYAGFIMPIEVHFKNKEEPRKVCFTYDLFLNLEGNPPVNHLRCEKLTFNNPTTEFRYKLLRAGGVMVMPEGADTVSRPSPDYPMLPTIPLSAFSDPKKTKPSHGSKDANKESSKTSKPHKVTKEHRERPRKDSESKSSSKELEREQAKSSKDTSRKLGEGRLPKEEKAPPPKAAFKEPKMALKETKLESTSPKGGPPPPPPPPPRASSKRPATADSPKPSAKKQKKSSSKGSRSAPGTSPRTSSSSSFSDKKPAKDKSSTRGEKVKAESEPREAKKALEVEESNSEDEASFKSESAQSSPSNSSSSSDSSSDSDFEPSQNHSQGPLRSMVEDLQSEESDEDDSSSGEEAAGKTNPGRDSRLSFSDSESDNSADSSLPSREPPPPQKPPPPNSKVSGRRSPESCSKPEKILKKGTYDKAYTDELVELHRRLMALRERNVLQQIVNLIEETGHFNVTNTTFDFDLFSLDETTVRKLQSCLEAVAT

[1] = Apparent permeability across apical to basolateral side in human Caco-2 cells; format: ADME, cell-based
[2] = Stability in human plasma assessed as compound remaining measured upto 1440 mins by HPLC analysis; format: ADME, cell-free; conditions: read-out: Stability
MOLM-13 = experiment: cells; conditions: Homo sapiens, MOLM-13, 192 h
Description: Anticancer activity against human MOLM-13 cells harbouring MLL-AF9 assessed as inhibition of cell growth treated for 8 days measured by CCK-8 kit method

KOPN-8 = experiment: cells; conditions: Homo sapiens, KOPN-8, 192 h
Description: Anticancer activity against human KOPN-8 cells harbouring MLL-ENL assessed as inhibition of cell growth treated for 8 days measured by CCK-8 kit method

Ki (Protein ENL): 0.24 µM
Papp A→B [1]: 7.3 nm/s
remaining at 24 h [2]: 94%
IC50 (MOLM-13): 3.2 µM
IC50 (KOPN-8): 2.21 µM
SMILES: CC(C)CCC(=O)N1CCC[C@H]1C(=O)N[C@H](C(=O)N[C@@H](CN)C(=O)N[C@@H](CC1CCCC1)C(=O)N1CCC[C@H]1c1nc(-c2ccccc2)cn1CC1CCCCC1)C(C)C ({Pentanoyl(4-Me)}-PV[Dap][Ala(cPent)]-X2)

From ChEMBL document CHEMBL5154930, “Design, Synthesis, and Biological Evaluations of DOT1L Peptide Mimetics Targeting the Protein-Protein Interactions between DOT1L and MLL-AF9/MLL-ENL” (J Med Chem, 2022)
